Source: US12110279B2, “Triazolones, tetrazolones, and imidazolones, or their salts, and pharmaceutical compositions comprising the same” (Yuhan Corporation, priority 2021, dated 2024)
Counter-ions that a name gives are not always drawn. Like-named read-outs stand apart in the source and are kept apart here.

What was measured:
Type in all cases: biochemical
[1] = molecular target: T1, recombinant human MAO-A (monoamine oxidase-A) (Homo sapiens, UniProt P21397); assay: Amplex Red HRP-coupled amine oxidase activity evaluation, recombinant human MAO-A; settings: substrate 0.5 mM tyramine; read-out: Inhibitory Activity (IC50, nM) MAO-A
T1 construct: purchased Sigma-Aldrich
T1 sequence (P21397 1-527): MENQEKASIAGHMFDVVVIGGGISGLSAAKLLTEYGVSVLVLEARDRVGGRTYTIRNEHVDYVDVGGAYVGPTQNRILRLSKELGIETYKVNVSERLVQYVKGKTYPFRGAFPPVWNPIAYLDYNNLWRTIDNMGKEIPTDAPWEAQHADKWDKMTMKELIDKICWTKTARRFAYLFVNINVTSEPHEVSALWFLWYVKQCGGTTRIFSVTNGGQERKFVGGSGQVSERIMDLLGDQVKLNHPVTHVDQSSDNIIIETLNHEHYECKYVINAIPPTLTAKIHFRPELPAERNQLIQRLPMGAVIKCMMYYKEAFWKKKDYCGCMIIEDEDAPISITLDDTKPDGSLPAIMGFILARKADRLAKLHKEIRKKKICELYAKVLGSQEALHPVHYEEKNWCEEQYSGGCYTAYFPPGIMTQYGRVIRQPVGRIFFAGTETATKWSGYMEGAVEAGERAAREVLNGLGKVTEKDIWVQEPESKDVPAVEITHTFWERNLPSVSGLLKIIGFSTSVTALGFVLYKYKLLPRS
Protocol: [The source words this procedure for another target and says it was used here with some conditions changed.] (§1) The compounds according to the present technology were evaluated in terms of activity on recombinant human VAP-1 (R&D systems) by measuring the level of hydrogen peroxide in horseradish peroxidase (HRP)-coupled reaction using Amplex Red Hydrogen Peroxide Assay Kit (Molecular Probes, Invitrogen, USA). The experiment was carried out at room temperature using benzylamine as a substrate. In the HRP-coupled reaction, hydrogen peroxide oxidation of 10-acetyl-3,7-dihydroxyphenoxazine (Amplex Red reagent) produces resorufin, which is a highly fluorescent compound. Briefly, the test compound was dissolved in dimethyl sulfoxide (DMSO) at a concentration of 20 mM. The dose-response assessment was made by 1:3 serial dilution in DMSO, thereby creating an 8-point curve. The concentration of the upper part was controlled according to the efficacy of the compounds, followed by dilution with a reaction buffer solution to obtain a final DMSO concentration of less than 1%. To each well of a 96 black well plate, human VAP-1 purified in 50 mM sodium phosphate buffer solution (pH7.4) was added. The test compounds dissolved in DMSO were incubated with the human VAP-1 enzymes at 37° C. for 30 minutes. After 30-minute incubation, each well was added with a reaction mixture containing 200 uM Amplex Red reagent prepared from 50 mM sodium phosphate buffer solution (pH 7.4), 1 mM benzylamine, and 1 U/mL HRP. Fluorescence intensity was measured at several time points during 1-2 hours using a microplate reader (Flexstation3, Molecular Devices) under the wavelength condition exciting at 544 nm and reading the emission at 590 nm. The inhibitory effect of the compounds was measured as a decrease (%) in the signal rate as compared to the control group without any inhibitor (only diluted DMSO). Data was fixed to a logistic model with four variables and IC50 value was calculated using GraphPad Prism program.

recombinant human VAP-1 = molecular target: T2, recombinant human VAP-1 (Homo sapiens, UniProt Q16853); assay: Amplex Red HRP-coupled amine oxidase activity evaluation, recombinant human VAP-1; settings: substrate 1 mM benzylamine; 30 min preincubation at 37° C.; read-out: Inhibitory Activity (IC50, nM) human VAP-1
T2 construct: purchased R&D systems
T2 sequence (Q16853 1-763): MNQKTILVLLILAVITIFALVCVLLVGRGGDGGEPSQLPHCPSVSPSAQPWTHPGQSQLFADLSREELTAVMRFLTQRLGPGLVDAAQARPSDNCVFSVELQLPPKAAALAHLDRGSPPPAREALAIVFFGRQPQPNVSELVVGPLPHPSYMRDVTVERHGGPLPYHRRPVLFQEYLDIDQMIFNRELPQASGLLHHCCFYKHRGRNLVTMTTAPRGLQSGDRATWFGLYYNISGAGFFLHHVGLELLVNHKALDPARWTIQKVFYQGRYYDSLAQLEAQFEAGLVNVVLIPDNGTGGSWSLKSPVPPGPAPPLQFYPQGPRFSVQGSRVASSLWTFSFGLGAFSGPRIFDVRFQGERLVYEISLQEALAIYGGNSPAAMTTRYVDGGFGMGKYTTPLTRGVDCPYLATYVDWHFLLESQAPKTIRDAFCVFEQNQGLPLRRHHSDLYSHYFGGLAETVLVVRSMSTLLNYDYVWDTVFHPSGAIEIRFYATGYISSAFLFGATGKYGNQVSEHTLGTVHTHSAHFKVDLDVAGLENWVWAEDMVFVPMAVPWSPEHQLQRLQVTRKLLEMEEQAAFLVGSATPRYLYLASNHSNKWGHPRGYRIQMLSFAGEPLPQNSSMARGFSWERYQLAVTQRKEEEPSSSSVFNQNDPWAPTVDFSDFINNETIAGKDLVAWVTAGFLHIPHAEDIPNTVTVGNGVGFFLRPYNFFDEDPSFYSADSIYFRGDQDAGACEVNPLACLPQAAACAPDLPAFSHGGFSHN
Protocol: as §1

[2] = molecular target: T3, recombinant human DAO (diamine oxidase) (Homo sapiens, UniProt P19801); assay: Amplex Red HRP-coupled amine oxidase activity evaluation, recombinant human DAO
T3 construct: purchased R&D systems
T3 sequence (P19801 20-751): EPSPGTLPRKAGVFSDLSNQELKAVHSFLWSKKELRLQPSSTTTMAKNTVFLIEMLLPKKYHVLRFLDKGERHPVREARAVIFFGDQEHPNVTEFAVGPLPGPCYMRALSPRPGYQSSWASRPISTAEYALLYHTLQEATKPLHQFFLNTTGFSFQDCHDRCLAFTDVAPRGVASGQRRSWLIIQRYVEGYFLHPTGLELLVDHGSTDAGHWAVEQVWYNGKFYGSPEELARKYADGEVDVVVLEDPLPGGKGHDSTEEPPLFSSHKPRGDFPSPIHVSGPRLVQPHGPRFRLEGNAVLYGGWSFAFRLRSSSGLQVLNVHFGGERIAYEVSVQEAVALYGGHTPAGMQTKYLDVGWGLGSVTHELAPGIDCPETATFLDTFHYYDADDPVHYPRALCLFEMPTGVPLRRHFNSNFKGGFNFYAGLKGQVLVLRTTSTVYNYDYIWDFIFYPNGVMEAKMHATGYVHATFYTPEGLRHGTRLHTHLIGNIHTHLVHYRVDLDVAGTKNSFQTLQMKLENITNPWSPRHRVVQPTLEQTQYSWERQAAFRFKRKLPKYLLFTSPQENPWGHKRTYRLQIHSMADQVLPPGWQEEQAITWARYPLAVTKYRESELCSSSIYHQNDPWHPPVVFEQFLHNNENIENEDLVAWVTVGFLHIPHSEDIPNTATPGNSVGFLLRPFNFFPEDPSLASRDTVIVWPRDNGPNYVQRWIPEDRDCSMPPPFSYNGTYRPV
Protocol: [The source words this procedure for another target and says it was used here with some conditions changed.] as §1

[3] = molecular target: T4, recombinant human MAO-B (monoamine oxidase-B) (Homo sapiens, UniProt P27338); assay: Amplex Red HRP-coupled amine oxidase activity evaluation, recombinant human MAO-B; settings: substrate 1 mM benzylamine; read-out: Inhibitory Activity (IC50, nM) MAO-B
T4 construct: purchased Sigma-Aldrich
T4 sequence (P27338 1-520): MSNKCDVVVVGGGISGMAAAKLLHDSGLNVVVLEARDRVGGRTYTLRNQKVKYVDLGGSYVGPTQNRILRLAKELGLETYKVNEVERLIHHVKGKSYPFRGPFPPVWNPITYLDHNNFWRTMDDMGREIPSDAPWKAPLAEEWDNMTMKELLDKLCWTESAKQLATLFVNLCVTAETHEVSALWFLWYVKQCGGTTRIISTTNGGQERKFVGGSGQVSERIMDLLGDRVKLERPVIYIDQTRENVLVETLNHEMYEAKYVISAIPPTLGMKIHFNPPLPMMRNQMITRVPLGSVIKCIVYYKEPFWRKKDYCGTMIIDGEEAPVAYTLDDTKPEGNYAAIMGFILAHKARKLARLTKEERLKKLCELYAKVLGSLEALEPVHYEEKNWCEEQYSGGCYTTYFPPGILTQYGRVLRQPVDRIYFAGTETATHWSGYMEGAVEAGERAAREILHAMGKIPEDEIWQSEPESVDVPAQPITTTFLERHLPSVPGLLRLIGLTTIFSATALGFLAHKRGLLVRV
Protocol: [The source words this procedure for another target and says it was used here with some conditions changed.] as §1

[4] = substrate 1 mM putrescine, read-out: Inhibitory Activity (IC50, nM) DAO

Row | IC50 [1] [nM] | IC50 (recombinant human VAP-1) [nM] | IC50 [2, 4] [nM] | IC50 [3] [nM] | IC50 [2] [nM] | SMILES
1 | > 100000 | 1 | 513 | 48400 |  | CS(=O)(=O)c1ccc(-c2cccc(Cn3nnn(CC(CN)=C(F)F)c3=O)c2)cc1 [Example 27, 1-[2-(aminomethyl)-3,3-difluoro-allyl]-4-[[3-(4-methylsulfonylphenyl)phenyl]methyl]tetrazol-5-one trifluoroacetate]
2 | 33000 | 1.8 | 5160 | 35800 |  | NCC(Cn1nnn(Cc2cccc(-c3ccc(N4CCNCC4)cc3)c2)c1=O)=C(F)F [Example 28, 1-[2-(aminomethyl)-3,3-difluoro-allyl]-4-[[3-(4-piperazin-1-ylphenyl)phenyl]methyl]tetrazol-5-one di-trifluoroacetate]
3 | > 100000 | 0.5 | 4890 | 8.8 |  | NCC(Cn1nnn(-c2ccc(-c3ccc4c(c3)OCO4)cc2)c1=O)=C(F)F [Example 19, 1-[2-(aminomethyl)-3,3-difluoro-allyl]-4-[4-(1,3-benzodioxol-5-yl)phenyl]tetrazol-5-one trifluoroacetate]
4 | > 100000 | 7 |  | > 100000 | 351 | NCC(Cn1nnn(-c2cccc(-c3ccc(N4CCNCC4)cc3)c2)c1=O)=C(F)F [Example 11, 1-[2-(aminomethyl)-3,3-difluoro-allyl]-4-[3-(4-piperazin-1-ylphenyl)phenyl]tetrazol-5-one trifluoroacetate]
5 | > 100000 | 1.5 | 55 | 260 |  | CS(=O)(=O)c1ccc(-c2ccc(-n3nnn(CC(CN)=C(F)F)c3=O)cc2)cc1 [Example 16, 1-[2-(aminomethyl)-3,3-difluoro-allyl]-4-[4-(4-methylsulfonylphenyl)phenyl]tetrazol-5-one trifluoroacetate]

Second part, the compound before the results:

Row | SMILES | IC50 [1] [nM] | IC50 (recombinant human VAP-1) [nM] | IC50 [2, 4] [nM] | IC50 [3] [nM] | IC50 [2] [nM]
6 | CN1C(=O)CCc2cc(-c3ccc(Cn4ccn(CC(CN)=C(F)F)c4=O)s3)ccc21 [Example 51, 6-[5-[[3-[2-(aminomethyl)-3,3-difluoro-allyl]-2-oxo-imidazol-1-yl]methyl]-2-thienyl]-1-methyl-3,4-dihydroquinolin-2-one trifluoroacetate] | > 100000 | 1.9 | 206 | 63100 | 
7 | Cc1cc(-c2cccc(-n3nnn(CC(CN)=C(F)F)c3=O)c2)cc2c1NC(=O)CC2 [Example 13, 6-[3-[4-[2-(aminomethyl)-3,3-difluoro-allyl]-5-oxo-tetrazol-1-yl]phenyl]-8-methyl-3,4-dihydro-1H-quinolin-2-one trifluoroacetate] | > 100000 | 0.7 | 12 | 7800 | 
8 | Cc1cc(-c2csc(-n3nnn(CC(CN)=C(F)F)c3=O)c2)cc2c1NC(=O)CC2 [Example 40, 6-[5-[4-[2-(aminomethyl)-3,3-difluoro-allyl]-5-oxo-tetrazol-1-yl]-3-thienyl]-8-methyl-3,4-dihydro-1H-quinolin-2-one trifluoroacetate] | 56100 | 0.4 | 1.6 | 123 | 
9 | CS(=O)(=O)c1ccc(-c2ccc(Cn3nnn(CC(CN)=C(F)F)c3=O)s2)cc1 [Example 43, 1-[2-(aminomethyl)-3,3-difluoro-allyl]-4-[[5-(4-methylsulfonylphenyl)-2-thienyl]methyl]tetrazol-5-one trifluoroacetate] | 72800 | 0.4 | 911 | 19700 | 
10 | CCn1cc(-c2ccc(-n3nnn(CC(CN)=C(F)F)c3=O)s2)ccc1=O [Example 9, 5-[5-[4-[2-(aminomethyl)-3,3-difluoro-allyl]-5-oxo-tetrazol-1-yl]-2-thienyl]-1-ethyl-pyridin-2-one trifluoroacetate] | > 100000 | 0.4 | 3.1 | 203 | 
11 | CN1C(=O)CCc2cc(-c3csc(-n4nnn(CC(CN)=C(F)F)c4=O)c3)ccc21 [Example 41, 6-[5-[4-[2-(aminomethyl)-3,3-difluoro-allyl]-5-oxo-tetrazol-1-yl]-3-thienyl]-1-methyl-3,4-dihydroquinolin-2-one trifluoroacetate] | > 100000 | 0.4 | 52 | 34 | 
12 | Cc1nn(CC(CN)=C(F)F)c(=O)n1Cc1ccc(-c2ccc(N(C)C)nc2)s1 [Example 5, 2-[2-(aminomethyl)-3,3-difluoro-allyl]-4-[[5-[6-(dimethylamino)-3-pyridyl]-2-thienyl]methyl]-5-methyl-1,2,4-triazol-3-one trifluoroacetate] | > 100000 | 2 | > 100000 | > 100000 | 
